The nature of this data set: Modulation of p-gp (unknown origin) transfected in human MDA435/LCC6MDR cells assessed as reversal of paclitaxel resistance.

For the molecule `COc1ccc(C2=C(c3cc(OC)c(OC)c(OC)c3)C(=O)N(CC(=O)c3ccc(OCc4ccccc4)c(OC)c3)C2=O)cc1OC`, the EC50 came to 110 nM.

With `COc1ccc(C2=C(c3ccc(OC)c(OC)c3)C(=O)N(CC(=O)c3ccc(OCc4ccccc4)c(OC)c3)C2=O)cc1OC`, the EC50 turned out to be 94 nM.

Values taken from BindingDB's records for doi:10.1021/jm400930e (Ocean University of China, 2013).
